Reference: patent US8425997B2, “Cobalt bearing polymeric compositions” (Umicore, priority 2008, dated 2013)

Assay: Aqueous solubility (leaching) of Co, OECD-105 flask method
Type: physicochemical
Procedure: Experiments are performed to determine the aqueous solubility of the Co in the invented polymers. These tests are relevant as indicators for the bioavailability of Co.
[…] The leaching tests are conducted according to the OECD-105 standard flask method, as described in the OECD Guideline for the Testing of Chemicals, adopted on 27 Jul. 1995, and in the Official Journal of the European Communities L 383 A, 54-62 (1992).
The solubility of 3 typical polymers according to the invention is compared to that of 3 commercial products.

Solubility of Co in 0.9% NaCl solution, Co (solvent: 0.9% NaCl): 1400 mg/L
Solubility of Co in water, Co (solvent: water): 1600 mg/L
Substance: Co-acetylacetonate
